Source: US10968217B2, “Tetrahydropyridopyrimidines for the treatment and prophylaxis of hepatitis B virus infection” (Hoffmann-La Roche Inc., priority 2016, dated 2021)

Each compound was assayed on HBsAg (assay: HBsAg assay (CLIA of secreted HBsAg in HepG2.2.15 culture supernatant)). Conditions: Hepatitis B virus, HepG2.2.15, read-out: IC50 (HBsAg assay).
Type: cell-based, HBV
Protocol: HepG2.2.15 cells (Acs et al. Proc Natl Acad Sci USA, 84, (1987), 4641-4), a constitutively HBV-expressing cell line were cultured in DMEM+Glutamax-I medium (Invitrogen, Carlsbad, Calif., USA), supplemented with 10% fetal bovine serum (Invitrogen) and G418 (Invitrogen) at a final concentration of 200 mg/L and maintained in 5% CO2 at 37° C.
HepG2.2.15 cells were seeded in duplicate into white, 96-well plates at 1.5×10^4 cells/well. The cells were treated with a three-fold serial dilution series of the compounds in DMSO. The final DMSO concentration in all wells was 1% and DMSO was used as no drug control.
The HBsAg chemiluminescence immunoassay (CLIA) kit (Autobio Diagnostics Co., Zhengzhou, China, Catalog number: CL0310-2) was used to measure the levels of secreted HBV antigens semi-quantitatively. For the detection 50 μL/well culture supernatant was used and HBsAg was quantified using HBsAg chemiluminescence immunoassay (CLIA) kit (Autobio Diagnostics Co., Zhengzhou, China, Catalog number: CL0310-2), 50 μL of the supernatant was transferred to the CLIA assay plate and 50 μL of enzyme conjugate reagent was added into each well. The plates were sealed and gently agitated for 1 hour at room temperature. The supernatant-enzyme-mixture was discarded and wells were washed 6 times with 300 μL of PBS. The residual liquid was removed by plating the CLIA plate right side down on absorbent tissue paper. 25 μL of substrates A and B were added to each well. Luminance was measured using a luminometer (Mithras LB 940 Multimode Microplate Reader) after 10 minutes incubation. Dose-response curves were generated and the IC50 value was extrapolated by using the E-WorkBook Suite (ID Business Solutions Ltd., Guildford, UK). The IC50 was defined as the compound concentration at which HBsAg secretion was reduced by 50% compared to the no drug control.

| Compound | IC50 |
| --- | --- |
| O=C(c1ccc(O)c(F)c1)N1CCc2nc(-c3ccccn3)ncc2C1 [Example 12, (3-Fluoro-4-hydroxy-phenyl)-[2-(2-pyridyl)-7,8-dihydro-5H-pyrido[4,3-d]pyrimidin-6-yl]methanone] | 21.4 µM |
| COCCCOc1ccc(C(=O)N2CCc3nc(-c4ccccn4)ncc3C2)cc1Cl [Example 24, [3-Chloro-4-(3-methoxypropoxy)phenyl]-[2-(2-pyridyl)-7,8-dihydro-5H-pyrido[4,3-d]pyrimidin-6-yl]methanone] | 3.18 µM |
| O=C(c1cccc(C(F)(F)F)c1)N1CCc2nc(-c3ccccn3)ncc2C1 [Example 6, [2-(2-Pyridyl)-7,8-dihydro-5H-pyrido[4,3-d]pyrimidin-6-yl]-[3-(trifluoromethyl)phenyl]methanone] | 18.7 µM |
| CC1c2cnc(-c3ccccn3)nc2CCN1C(=O)c1ccsc1 (centres unmarked) [Example 44, [5-Methyl-2-(2-pyridyl)-7,8-dihydro-5H-pyrido[4,3-d]pyrimidin-6-yl]-(3-thienyl)methanone] | 2.46 µM |
| COCCCOc1ccc(C(=O)N2CCc3nc(-c4ccccn4)ncc3C2)cc1F [Example 15, [3-Fluoro-4-(3-methoxypropoxy)phenyl]-[2-(2-pyridyl)-7,8-dihydro-5H-pyrido[4,3-d]pyrimidin-6-yl]methanone] | 4.89 µM |
| Cc1ccc(C(=O)N2CCc3nc(-c4ccccn4)ncc3C2C)s1 (centres unmarked) [Example 43, [5-Methyl-2-(2-pyridyl)-7,8-dihydro-5H-pyrido[4,3-d]pyrimidin-6-yl]-(5-methyl-2-thienyl)methanone] | 0.326 µM |
| CC1c2cnc(-c3ccccn3)nc2CCN1C(=O)c1ccc2[nH]ncc2c1 (centres unmarked) [Example 47, 1H-indazol-5-yl-[5-methyl-2-(2-pyridyl)-7,8-dihydro-5H-pyrido[4,3-d]pyrimidin-6-yl]methanone] | 2.47 µM |
| CC1c2cnc(-c3ccccn3)nc2CCN1C(=O)c1ncco1 (centres unmarked) [Example 60, [5-Methyl-2-(2-pyridyl)-7,8-dihydro-5H-pyrido[4,3-d]pyrimidin-6-yl]-oxazol-2-yl-methanone] | 2.61 µM |
| O=C(c1cc(F)cc(F)c1)N1CCc2nc(-c3ccccn3)ncc2C1 [Example 37, (3,5-Difluorophenyl)-[2-(2-pyridyl)-7,8-dihydro-5H-pyrido[4,3-d]pyrimidin-6-yl]methanone] | 25.8 µM |
| COc1ccc2[nH]nc(C(=O)N3CCc4nc(-c5ncccn5)ncc4C3C)c2c1 (centres unmarked) [Example 66, (5-Methoxy-1H-indazol-3-yl)-(5-methyl-2-pyrimidin-2-yl-7,8-dihydro-5H-pyrido[4,3-d]pyrimidin-6-yl)methanone] | 1.36 µM |
| Cc1nc(C(=O)N2CCc3nc(-c4ccccn4)ncc3C2C)sc1C (centres unmarked) [Example 61, (4,5-Dimethylthiazol-2-yl)-[5-methyl-2-(2-pyridyl)-7,8-dihydro-5H-pyrido[4,3-d]pyrimidin-6-yl]methanone] | 0.082 µM |
| Cc1csc(C(=O)N2CCc3nc(-c4ccccn4)ncc3C2C)c1 (centres unmarked) [Example 41, [5-Methyl-2-(2-pyridyl)-7,8-dihydro-5H-pyrido[4,3-d]pyrimidin-6-yl]-(4-methyl-2-thienyl)methanone] | 0.38 µM |
| Cc1ccc(C(=O)N2CCc3nc(-c4ccccn4)ncc3C2)cc1F [Example 28, (3-Fluoro-4-methyl-phenyl)-[2-(2-pyridyl)-7,8-dihydro-5H-pyrido[4,3-d]pyrimidin-6-yl]methanone] | 9.34 µM |
| CC1c2cnc(-c3ccccn3)nc2CCN1C(=O)c1ncc[nH]1 (centres unmarked) [Example 56, 1H-Imidazol-2-yl-[5-methyl-2-(2-pyridyl)-7,8-dihydro-5H-pyrido[4,3-d]pyrimidin-6-yl]methanone] | 1.08 µM |
| O=C(c1ccc(C(F)(F)F)cc1)N1CCc2nc(-c3ccccn3)ncc2C1 [Example 1, [2-(2-Pyridyl)-7,8-dihydro-5H-pyrido[4,3-d]pyrimidin-6-yl]-[4-(trifluoromethyl)phenyl]methanone] | 15.7 µM |
| CC1c2cnc(-c3ccccn3)nc2CCN1C(=O)c1cncs1 (centres unmarked) [Example 54, [5-Methyl-2-(2-pyridyl)-7,8-dihydro-5H-pyrido[4,3-d]pyrimidin-6-yl]-thiazol-5-yl-methanone] | 11.5 µM |
| Cc1ccsc1C(=O)N1CCc2nc(-c3ccccn3)ncc2C1C (centres unmarked) [Example 50, [5-Methyl-2-(2-pyridyl)-7,8-dihydro-5H-pyrido[4,3-d]pyrimidin-6-yl]-(3-methyl-2-thienyl)methanone] | 27.7 µM |
| COc1c(F)cc(C(=O)N2CCc3nc(-c4ccccn4)ncc3C2)cc1F [Example 30, (3,5-Difluoro-4-methoxy-phenyl)-[2-(2-pyridyl)-7,8-dihydro-5H-pyrido[4,3-d]pyrimidin-6-yl]methanone] | 25.2 µM |

| Compound | IC50 |
| --- | --- |
| O=C(c1ccc(F)cc1)N1CCc2nc(-c3ccccn3)ncc2C1 [Example 8, (4-Fluorophenyl)-[2-(2-pyridyl)-7,8-dihydro-5H-pyrido[4,3-d]pyrimidin-6-yl]methanone] | 16.4 µM |
| CC1c2cnc(-c3ccccn3)nc2CCN1C(=O)c1cccs1 (centres unmarked) [Example 49, [5-Methyl-2-(2-pyridyl)-7,8-dihydro-5H-pyrido[4,3-d]pyrimidin-6-yl]-(2-thienyl)methanone] | 1.11 µM |
| CC1c2cnc(-c3ncccn3)nc2CCN1C(=O)c1n[nH]c2ccc(F)cc12 (centres unmarked) [Example 64, (5-Fluoro-1H-indazol-3-yl)-(5-methyl-2-pyrimidin-2-yl-7,8-dihydro-5H-pyrido[4,3-d]pyrimidin-6-yl)methanone] | 0.21 µM |
| COc1cc(C(=O)N2CCc3nc(-c4ccccn4)ncc3C2)ccc1O [Example 25, (4-Hydroxy-3-methoxy-phenyl)-[2-(2-pyridyl)-7,8-dihydro-5H-pyrido[4,3-d]pyrimidin-6-yl]methanone] | 34.3 µM |
| COc1cc(Cl)cc(C(=O)N2CCc3nc(-c4ccccn4)ncc3C2)c1 [Example 18, (3-Chloro-5-methoxy-phenyl)-[2-(2-pyridyl)-7,8-dihydro-5H-pyrido[4,3-d]pyrimidin-6-yl]methanone] | 10 µM |
| COc1ccc(C(=O)N2CCc3nc(-c4ccccn4)ncc3C2)cc1Cl [Example 21, (3-Chloro-4-methoxy-phenyl)-[2-(2-pyridyl)-7,8-dihydro-5H-pyrido[4,3-d]pyrimidin-6-yl]methanone] | 5.07 µM |
| COc1cc(C(=O)N2CCc3nc(-c4ccccn4)ncc3C2)ccc1F [Example 9, (4-Fluoro-3-methoxy-phenyl)-[2-(2-pyridyl)-7,8-dihydro-5H-pyrido[4,3-d]pyrimidin-6-yl]methanone] | 11.5 µM |
| Cc1cc(C(=O)N2CCc3nc(-c4ccccn4)ncc3C2)ccc1F [Example 20, (4-Fluoro-3-methyl-phenyl)-[2-(2-pyridyl)-7,8-dihydro-5H-pyrido[4,3-d]pyrimidin-6-yl]methanone] | 7.85 µM |
| CCOc1ccc(C(=O)N2CCc3nc(-c4ccccn4)ncc3C2)cc1F [Example 13, (4-Ethoxy-3-fluoro-phenyl)-[2-(2-pyridyl)-7,8-dihydro-5H-pyrido[4,3-d]pyrimidin-6-yl]methanone] | 6.56 µM |
| COCCOc1ccc(C(=O)N2CCc3nc(-c4ccccn4)ncc3C2)cc1F [Example 14, [3-Fluoro-4-(2-methoxyethoxy)phenyl]-[2-(2-pyridyl)-7,8-dihydro-5H-pyrido[4,3-d]pyrimidin-6-yl]methanone] | 20 µM |
| CC1c2cnc(-c3ncccn3)nc2CCN1C(=O)c1n[nH]c2ccccc12 (centres unmarked) [Example 63, 1H-indazol-3-yl-(5-methyl-2-pyrimidin-2-yl-7,8-dihydro-5H-pyrido[4,3-d]pyrimidin-6-yl)methanone] | 0.45 µM |
| CC1c2cnc(-c3ccccn3)nc2CCN1C(=O)c1ccc(Br)s1 (centres unmarked) [Example 53, (5-Bromo-2-thienyl)-[5-methyl-2-(2-pyridyl)-7,8-dihydro-5H-pyrido[4,3-d]pyrimidin-6-yl]methanone] | 0.51 µM |
| Cc1cnc(C(=O)N2CCc3nc(-c4ccccn4)ncc3C2C)s1 (centres unmarked) [Example 55, [5-Methyl-2-(2-pyridyl)-7,8-dihydro-5H-pyrido[4,3-d]pyrimidin-6-yl]-(5-methylthiazol-2-yl)methanone] | 0.223 µM |
| COc1ccc(C(=O)N2CCc3nc(-c4ccccn4)ncc3C2)nc1 [Example 29, (5-Methoxy-2-pyridyl)-[2-(2-pyridyl)-7,8-dihydro-5H-pyrido[4,3-d]pyrimidin-6-yl]methanone] | 34.2 µM |
| O=C(c1ccc([N+](=O)[O-])cc1)N1CCc2nc(-c3ccccn3)ncc2C1 [Example 3, (4-Nitrophenyl)-[2-(2-pyridyl)-7,8-dihydro-5H-pyrido[4,3-d]pyrimidin-6-yl]methanone] | 27.3 µM |
| Cc1cc(C(=O)N2CCc3nc(-c4ccccn4)ncc3C2)no1 [Example 33, (5-Methylisoxazol-3-yl)-[2-(2-pyridyl)-7,8-dihydro-5H-pyrido[4,3-d]pyrimidin-6-yl]methanone] | 8.11 µM |
| N#Cc1ccc(C(=O)N2CCc3nc(-c4ccccn4)ncc3C2)cc1 [Example 2, 4-[2-(2-Pyridyl)-7,8-dihydro-5H-pyrido[4,3-d]pyrimidine-6-carbonyl]benzonitrile] | 17 µM |
